The record followed here is ChEMBL document CHEMBL2073917, “Polymethoxylated flavones in orange juice are inhibitors of P-glycoprotein but not cytochrome P450 3A4” (J Pharmacol Exp Ther, 2000).

Holding throughout (format): functional, cell-based
Holding throughout (settings): pig, llc-pk1, 20 µM

Series [1] addresses T1, ATP-dependent translocase ABCB1 (Homo sapiens, UniProt P08183). Briefly: TP_TRANSPORTER: increase in Vinblastine uptake (Vinblastine: 0.02 uM, HMF: 20 uM) in MDR1-expressing LLC-PK1 cells.
The target of series [2] is T1, ATP-dependent translocase ABCB1. The series is described as follows: TP_TRANSPORTER: increase in Vinblastine uptake (Vinblastine: 0.02 uM, Nobiletin: 20 uM) in MDR1-expressing LLC-PK1 cells.
Series [3] has the same target. Briefly: TP_TRANSPORTER: increase in Vinblastine uptake (Vinblastine: 0.02 uM, Tangeretin: 20 uM) in MDR1-expressing LLC-PK1 cells.

T1 sequence (P08183 whole entry): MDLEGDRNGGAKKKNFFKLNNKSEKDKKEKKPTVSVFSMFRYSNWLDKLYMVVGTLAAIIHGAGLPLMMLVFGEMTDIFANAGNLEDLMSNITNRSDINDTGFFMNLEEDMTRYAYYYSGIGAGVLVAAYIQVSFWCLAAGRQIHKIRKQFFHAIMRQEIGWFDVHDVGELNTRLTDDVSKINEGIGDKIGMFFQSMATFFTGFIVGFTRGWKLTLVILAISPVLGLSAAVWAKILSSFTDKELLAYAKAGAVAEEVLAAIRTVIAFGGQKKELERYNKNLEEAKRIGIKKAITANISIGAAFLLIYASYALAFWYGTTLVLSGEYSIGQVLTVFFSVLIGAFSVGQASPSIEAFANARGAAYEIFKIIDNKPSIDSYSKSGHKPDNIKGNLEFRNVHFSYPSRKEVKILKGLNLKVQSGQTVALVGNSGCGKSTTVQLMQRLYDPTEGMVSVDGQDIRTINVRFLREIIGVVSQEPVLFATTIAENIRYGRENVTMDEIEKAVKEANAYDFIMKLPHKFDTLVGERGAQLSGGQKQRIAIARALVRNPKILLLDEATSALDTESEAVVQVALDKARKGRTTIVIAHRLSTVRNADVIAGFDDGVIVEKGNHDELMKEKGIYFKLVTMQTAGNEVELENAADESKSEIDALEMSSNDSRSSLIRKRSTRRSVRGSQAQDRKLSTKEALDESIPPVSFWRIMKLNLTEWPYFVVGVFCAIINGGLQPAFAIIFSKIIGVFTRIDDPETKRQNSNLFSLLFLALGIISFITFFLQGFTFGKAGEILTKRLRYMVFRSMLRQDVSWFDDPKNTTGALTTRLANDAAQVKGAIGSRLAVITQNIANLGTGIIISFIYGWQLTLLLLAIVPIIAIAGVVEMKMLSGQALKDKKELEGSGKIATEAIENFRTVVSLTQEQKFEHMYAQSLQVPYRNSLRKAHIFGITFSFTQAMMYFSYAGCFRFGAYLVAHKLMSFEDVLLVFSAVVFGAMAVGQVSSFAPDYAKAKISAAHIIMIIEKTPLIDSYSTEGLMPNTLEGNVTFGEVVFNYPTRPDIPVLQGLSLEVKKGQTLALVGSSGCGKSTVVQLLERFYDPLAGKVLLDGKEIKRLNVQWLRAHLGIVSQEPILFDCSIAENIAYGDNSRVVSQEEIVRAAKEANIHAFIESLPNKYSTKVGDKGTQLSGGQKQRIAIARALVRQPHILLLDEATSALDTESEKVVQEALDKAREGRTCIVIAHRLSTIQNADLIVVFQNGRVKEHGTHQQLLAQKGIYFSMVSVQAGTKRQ

Turning to `COc1ccc(-c2oc3c(OC)c(OC)c(OC)c(OC)c3c(=O)c2OC)cc1OC` [3,5,6,7,8,3',4'-HEPTAMETHOXYFLAVONE], the Activity in series [1] was determined as 935%. `COc1ccc(-c2cc(=O)c3c(OC)c(OC)c(OC)c(OC)c3o2)cc1OC` [NOBILETIN] displayed an Activity in series [2] of 604%. Molecule `COc1ccc(-c2cc(=O)c3c(OC)c(OC)c(OC)c(OC)c3o2)cc1` [TANGERETIN] displayed an Activity in series [3] of 175%.
